From patent US10442931B2, “Dye compound, composition comprising dye compound, and display device using dye compound” (Samsung Display Co. Ltd., priority 2017, dated 2019)

Legend:
[1] = Whether having lipid solubility (solubility in MEK, PGMEA, cyclo-hexanone, or toluene); format: physicochemical
Procedure: (§1) The maximum absorption wavelength bands and absorbance were measured using Shimadzu UV-1800 UV-vis. Spectrophotometer. Whether having lipid solubility was determined to be lipid soluble when the solubility of the compounds in MEK, PGMEA, cyclo-hexanone, or toluene was 1 wt % or more.

[2] = Maximum absorption wavelength band and absorbance, Shimadzu UV-1800 UV-vis spectrophotometer; format: physicochemical
Procedure: as §1

| SMILES | Whether having lipid solubility [1] | Maximum absorption wavelength band [2] |
| --- | --- | --- |
| CCN(CC)c1ccc(/N=N/c2ncc(-c3cnc(/N=N/c4ccc(N(CC)CC)cc4O)s3)s2)c(O)c1 [Compound B123] | ∘ (determined to be lipid soluble when the solubility of the compounds in MEK, PGMEA, cyclo-hexanone, or toluene was 1 wt % or more) | ≥ 600- nm |
| C=C(C)C(=O)N(CC)c1ccc(/N=N/c2ccc(N3CCN(c4ccc(/N=N/c5ccc(N(CC)C(=O)C(=C)C)cc5C)cc4)CC3)cc2)c(C)c1 [Compound A138] | ∘ (determined to be lipid soluble when the solubility of the compounds in MEK, PGMEA, cyclo-hexanone, or toluene was 1 wt % or more) | 500-600 nm |
| CCCCOc1ccc(/N=N/c2ccc(/C=C/c3ccc(/N=N/c4ccc(OCCCC)cc4)cc3)cc2)cc1 [Compound C103] | ∘ (determined to be lipid soluble when the solubility of the compounds in MEK, PGMEA, cyclo-hexanone, or toluene was 1 wt % or more) | 400-500 nm |
| CCCCOc1ccc(/N=N/c2ccc(N3CCN(c4ccc(/N=N/c5ccc(OCCCC)cc5)cc4)CC3)cc2)cc1 [Compound A124] | ∘ (determined to be lipid soluble when the solubility of the compounds in MEK, PGMEA, cyclo-hexanone, or toluene was 1 wt % or more) | 500-600 nm |
| Cc1c(O)c(/N=N/c2ncc(-c3cnc(/N=N/c4cc5ccc(N)cc5c(C)c4O)s3)s2)cc2ccc(N)cc12 [Compound B127] | ∘ (determined to be lipid soluble when the solubility of the compounds in MEK, PGMEA, cyclo-hexanone, or toluene was 1 wt % or more) | ≥ 600- nm |
| CCCCN(C)c1ccc(/N=N/c2ncc(-c3cnc(/N=N/c4ccc(N(C)CCCC)cc4)s3)s2)cc1 [Compound B117] | ∘ (determined to be lipid soluble when the solubility of the compounds in MEK, PGMEA, cyclo-hexanone, or toluene was 1 wt % or more) | ≥ 600- nm |
| CCN(CC)c1ccc(/N=N/c2ccc(N3CCN(c4ccc(/N=N/c5ccc(N(CC)CC)cc5O)cc4)CC3)cc2)c(O)c1 [Compound A132] | ∘ (determined to be lipid soluble when the solubility of the compounds in MEK, PGMEA, cyclo-hexanone, or toluene was 1 wt % or more) | 500-600 nm |
| CCCCN(C)c1ccc(/N=N/c2ccc(N3CCN(c4ccc(/N=N/c5ccc(N(C)CCCC)cc5)cc4)CC3)cc2)cc1 [Compound A133] | ∘ (determined to be lipid soluble when the solubility of the compounds in MEK, PGMEA, cyclo-hexanone, or toluene was 1 wt % or more) | 500-600 nm |
| Nc1ccc(/N=N/c2ccc(-c3ccc(-c4ccc(/N=N/c5ccc(N)cc5)cc4)cc3)cc2)cc1 [Compound D110] | ∘ (determined to be lipid soluble when the solubility of the compounds in MEK, PGMEA, cyclo-hexanone, or toluene was 1 wt % or more) | 500-600 nm |
